# Columns and labels:
# hypogonadal men = conditions: 12-year study, hypogonadal men who received T; […] for men who did not; cited from earlier work
# Aβ levels = conditions: mice, cyclic administration, high levels 10 days in a row every 30 days; cited from earlier work
# [1] = test system: cortical rat neurons intoxicated with human AβO 1-42; experiment: Example 10: neuroprotection of cortical neurons intoxicated with human AβO 1-42; type: cell-based; conditions: BDNF 50 ng/ml; human AβO 1-42 10 μM, 24 h
# Text: This is a prophetic example. The 40 and 42 amino acid forms are the most abundant B-amyloid (Aβ) peptide forms found in AD brain senile plaques, as disclosed herein. However, the number of senile plaques in a particular region of the AD brain correlates poorly with the local extent of neuron death or synaptic loss, or with cognitive impairment (Sisodia et al., 1990). Studies have shown a robust correlation between the soluble human Aβ 1-42 oligomer (AβO) levels and the extent of synaptic loss and severity of cognitive impairment (Sakono et al., 2010). This example investigates the neuroprotective effect of the composition prepared as described in Example 2 on cortical neurons incubated for 24 hours in the presence of AβO, an in vitro model of AD (Callizot et al., 2013). Brain-derived neurotrophic factor (BDNF) is used as a positive control in this study.
# Cortical rat neurons are cultured at +37° C. in a humidified air/CO2 (95/5) atmosphere. After 11 days of culture, cortical neurons are intoxicated with human AβO 1-42 at 10 μM for 24 hrs. […]
# The total number of cortical neurons that survive after 24 h incubation are counted to determine the end point evaluation. […]
molecule,measurement,setting,value
"C[C@]12CC[C@H]3[C@@H](CCC4=CC(=O)CC[C@@]43C)[C@@H]1CC[C@@H]2O [T, testosterone]",rate of prostate cancer,hypogonadal men,2.7%
CC(=O)[C@H]1CC[C@H]2[C@@H]3CCC4=CC(=O)CC[C@]4(C)[C@H]3CC[C@]12C [progesterone],Aβ levels,Aβ levels,decreased Aβ levels
"BDNF: Brain-derived neurotrophic factor, positive control (protein, UniProt P23560 19-247, looked up) Neurotrophic factor BDNF …: APMKEANIRGQGGLAYPGVRTHGTLESVNGPKAGSRGLTSLADTFEHVIEELLDEDQKVRPNEENNKDADLYTSRVMLSSQVPLEPPLLFLLEEYKNYLDAANMSMRVRRHSDPARRGELSVCDSISEWVTAADKKTAVDMSGGTVTVLEKVPVSKGQLKQYFYETKCNPMGYTKEGCRGIDKRHWNSQCRTTQSYVRALTMDSKKRIGWRFIRIDTSCVCTLTIKRGR",cell death resulting from AβO,[1],inhibits cell death resulting from AβO
